From PubChem BioAssay AID2060609 (Molecular Pharmacology Branch, DTP, NCI, 2025)

Test system: 855422-203-R-J1-PDC complex spheroids, viability
Assay: Anticancer human tumor 855422-203-R-J1-PDC patient-derived bladder carcinoma cell line growth inhibition [CLK]
Details: for IC50: curve of first compound; for viability, T/C: stronger effect = lower value; active means viability on the fitted dose curve at most 10% of control; inactive means the rest
From the text: A high-throughput screen of multi-cell type tumor spheroids was designed to identify active combinations of […] and targeted small molecules. Complex spheroids include a stromal component modeled by human endothelial cells (HUVEC) and fibroblasts modeled by human mesenchymal stem cells (MSCs). The concentration ranges selected for each drug and investigational agent were based upon clinically achievable concentrations if the clinical Cmax of the agent was known.
Compounds. The drugs and investigational agents: cirtuvivint (SM08502; NSC835563), CC-671 (NSC850746), vemurafenib (NSC761431), tapotoclax (NSC804041), sotorasib (NSC818433), adagrasib (NSC831453), MRTX-1133 (NSC836407), BAY2416964 (NSC825713), copanlisib (NSC816437), inavolisib (NSC800729), abemaciclib (NSC768073), osimertinib (NSC779217), entinostat (NSC756642), eltanexor (KPT-8602, NSC794443), venetoclax (NSC766270), ceralasertib (NSC777638), bortezomib (NSC756655), olaparib (NSC753686), talazoparib (NSC767125), alisertib (NSC759677), peposertib (NSC802822), gemcitabine (NSC613327), 5-fluorouracil (NSC19893), SN-38 (NSC673596), oxaliplatin (NSC266046), paclitaxel (NSC125973), and doxorubicin (NSC123127), were obtained from the National Cancer Institute (NCI) Developmental Therapeutics Program Chemical Repository. The FDA-approved anticancer drug set is available from the Developmental Therapeutics Program at https://dtp.cancer.gov/organization/dscb/obtaining/available plates.htm. […] The stock solutions were prepared in dimethyl sulfoxide (DMSO, Sigma-Aldrich, St. Louis, MO, cat. D2650), except for the platinum complexes which were prepared in saline (Quality Biological, Gaithersburg, MD, cat. 114-055-101), at 800-fold the tested concentration and stored at -70 degrees C prior to their use. All drugs and investigational agents were tested over a range starting from a high concentration at or near the clinical Cmax and decreasing in half-log increments. If the clinical Cmax for an agent had not been determined, the highest concentration tested was 10 microM.
Cell Culture. All cells were maintained in an incubator at 37 degrees C and 5% CO2 with 95% humidity. The PDC lines were cultured according to standard operating procedures established by the NCI PDMR. Briefly, all PDCs were thawed and cultured in Matrigel-coated flasks prepared with a working solution of 1X Ham's F-12 nutrient mix, without supplementation (Invitrogen, Waltham, MA, cat. 11765054), 100 U/mL penicillin-streptomycin (Invitrogen, cat. 15140122), and 2.5% Matrigel (Corning Inc., Corning, NY, cat. 354248) for the first three passages. The 947758-054-R-J2-PDC line was cultured in 6B/Colon 1A media, which includes advanced DMEM/F-12 (Thermo Fisher Scientific, cat. 12634028), 10 mM HEPES (Thermo Fisher Scientific, cat. 15630080), 1X GlutaMAX supplement (Thermo Fisher Scientific, cat. 35050061), 0.1 mg/mL primocin (InvivoGen, cat. ant-pm-2), 10% defined fetal bovine serum, heat inactivated (HyClone Laboratories Inc., cat. SH30070.03HI), 1.25 mM N-Acetyl-L-cysteine (Sigma-Aldrich, cat. A9165), 10 mM nicotinamide (Sigma-Aldrich, cat. N0636), 1X B-27 supplement (Thermo Fisher Scientific, cat. 17504044), 1X N-2 supplement (Thermo Fisher Scientific, cat. 17502048), and 10 microM Y-27632 dihydrochloride (Tocris Bioscience, cat. 1254). The 876862-298-R-J1-PDC was cultured in 6E media, which includes all 6B/Colon 1A media components plus 50% L-WRN conditioned media (ATCC, cat. CRL-3276), 50 ng/mL recombinant human EGF recombinant protein (hEGF; Thermo Fisher Scientific, cat. PHG0311), 10 ng/mL recombinant human fibroblast growth factor 10 (hGFG-10; PeproTech, cat. 100-26), 1 ng/mL recombinant human fibroblast growth factor 2 (hFGF-2; PeproTech, cat. 100-18B), and 1 µM prostaglandin E2 (PGE2; Tocris, cat. 2296). The 227483-062-R1-J1-PDC line was cultured in Panc media, containing all 6E components except hFGF-2, with the addition of 500 nM SB-431542 (Selleckchem, cat. S1067) and 10 nM gastrin (Tocris, cat. 3006). […]
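Further: spheroids exposed to drugs for seven days before readout.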
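Wherever viability, T/C is given: 100% = DMSO vehicle control wells.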

C=CC(=O)Nc1cc(Nc2nccc(-c3cn(C)c4ccccc34)n2)c(OC)cc1N(C)CCN(C)C + CN1CCN(c2cc(C(=O)Nc3cc4cc(-c5cnn(C)c5)ccc4cn3)ccn2)CC1
active: viability, T/C (second compound 0.316 µM, first compound 0.000949 µM) 7.04% | viability, T/C (second compound 0.316 µM, first compound 0.003 µM) 9.27% | viability, T/C (second compound 0.316 µM, first compound 0.00949 µM) 8.35% | viability, T/C (second compound 0.316 µM, first compound 0.03 µM) 11.4% | viability, T/C (second compound 0.316 µM, first compound 0.0949 µM) 8.34% | viability, T/C (second compound 0.316 µM, first compound 0.3 µM) 7.28% | viability, T/C (second compound 1 µM, first compound 0.000949 µM) 0.18% | viability, T/C (second compound 1 µM, first compound 0.003 µM) 0.31% | viability, T/C (second compound 1 µM, first compound 0.00949 µM) 0.54% | viability, T/C (second compound 1 µM, first compound 0.03 µM) 0.25% | viability, T/C (second compound 1 µM, first compound 0.0949 µM) 1.14% | viability, T/C (second compound 1 µM, first compound 0.3 µM) 0.46% | viability, T/C (second compound 3.16 µM, first compound 0.000949 µM) 0.7% | viability, T/C (second compound 3.16 µM, first compound 0.003 µM) 0.52% | viability, T/C (second compound 3.16 µM, first compound 0.00949 µM) 0.64% | viability, T/C (second compound 3.16 µM, first compound 0.03 µM) 0.46% | viability, T/C (second compound 3.16 µM, first compound 0.0949 µM) 0.68% | viability, T/C (second compound 3.16 µM, first compound 0.3 µM) 0.93% | viability, T/C (second compound 10 µM, first compound 0.000949 µM) 0.4% | viability, T/C (second compound 10 µM, first compound 0.003 µM) 1.47% | viability, T/C (second compound 10 µM, first compound 0.00949 µM) 0.52% | viability, T/C (second compound 10 µM, first compound 0.03 µM) 0.85% | viability, T/C (second compound 10 µM, first compound 0.0949 µM) 0.58% | viability, T/C (second compound 10 µM, first compound 0.3 µM) 0.28%
< 0.949 nM: IC50 (second compound 0.316 µM) | IC50 (second compound 1 µM) | IC50 (second compound 3.16 µM) | IC50 (second compound 10 µM)
inactive: viability, T/C (second compound 0.0316 µM, first compound 0.000949 µM) 104% | viability, T/C (second compound 0.0316 µM, first compound 0.003 µM) 88.3% | viability, T/C (second compound 0.0316 µM, first compound 0.00949 µM) 112% | viability, T/C (second compound 0.0316 µM, first compound 0.03 µM) 102% | viability, T/C (second compound 0.0316 µM, first compound 0.0949 µM) 97.6% | viability, T/C (second compound 0.0316 µM, first compound 0.3 µM) 91.4% | viability, T/C (second compound 0.1 µM, first compound 0.000949 µM) 79.1% | viability, T/C (second compound 0.1 µM, first compound 0.003 µM) 80.4% | viability, T/C (second compound 0.1 µM, first compound 0.00949 µM) 85.8% | viability, T/C (second compound 0.1 µM, first compound 0.03 µM) 91.7% | viability, T/C (second compound 0.1 µM, first compound 0.0949 µM) 74.8% | viability, T/C (second compound 0.1 µM, first compound 0.3 µM) 64.5%
> 300 nM: IC50 (second compound 0.0316 µM) | IC50 (second compound 0.1 µM)
